Experimental data reported in PubChem BioAssay (NCI).
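Step 1: Grow cells in 96-well plates. Step 2: Expose to compound for 48 hours at 5 concentrations. Step 3: Interpolate endpoints linearly; if unreached, use highest concentration. The concentration for 50% growth inhibition is given as GI50. At the TGI there is no net growth.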

Assays:
Experiment in all cases: NCI anticancer screen, dose series, 48 h
786-0 renal = system: 786-0 renal
A498 renal = system: A498 renal
A549 NSCLC = system: A549 NSCLC
ACHN renal = system: ACHN renal
CAKI-1 renal = system: CAKI-1 renal
CCRF-CEM leukemia = system: CCRF-CEM leukemia
DLD-1 colon = system: DLD-1 colon
DMS 114 small cell lung = system: DMS 114 small cell lung
DMS 273 small cell lung = system: DMS 273 small cell lung
EKVX NSCLC = system: EKVX NSCLC
HCC-2998 colon = system: HCC-2998 colon
HCT-116 colon = system: HCT-116 colon
HCT-15 colon = system: HCT-15 colon
HL-60(TB) leukemia = system: HL-60(TB) leukemia
HOP-62 NSCLC = system: HOP-62 NSCLC
HT29 colon = system: HT29 colon
IGROV1 ovarian = system: IGROV1 ovarian
K-562 leukemia = system: K-562 leukemia
KM12 colon = system: KM12 colon
KM20L2 colon = system: KM20L2 colon
LOX IMVI melanoma = system: LOX IMVI melanoma
LXFL 529 NSCLC = system: LXFL 529 NSCLC
M14 melanoma = system: M14 melanoma
M19-MEL melanoma = system: M19-MEL melanoma
MALME-3M melanoma = system: MALME-3M melanoma
MOLT-4 leukemia = system: MOLT-4 leukemia
NCI-H226 lung = system: NCI-H226 lung
NCI-H23 lung = system: NCI-H23 lung
NCI-H460 lung = system: NCI-H460 lung
NCI-H522 lung = system: NCI-H522 lung
OVCAR-3 ovarian = system: OVCAR-3 ovarian
OVCAR-4 ovarian = system: OVCAR-4 ovarian
OVCAR-8 ovarian = system: OVCAR-8 ovarian
RPMI-8226 leukemia = system: RPMI-8226 leukemia
RXF 393 renal = system: RXF 393 renal
SF-268 CNS = system: SF-268 CNS
SF-295 CNS = system: SF-295 CNS
SF-539 CNS = system: SF-539 CNS
SK-MEL-2 melanoma = system: SK-MEL-2 melanoma
SK-MEL-28 melanoma = system: SK-MEL-28 melanoma
SK-MEL-5 melanoma = system: SK-MEL-5 melanoma
SK-OV-3 ovarian = system: SK-OV-3 ovarian
SN12C renal = system: SN12C renal
SNB-19 CNS = system: SNB-19 CNS
SNB-75 CNS = system: SNB-75 CNS
SW-620 colon = system: SW-620 colon
U251 CNS = system: U251 CNS
UACC-257 melanoma = system: UACC-257 melanoma
UACC-62 melanoma = system: UACC-62 melanoma
UO-31 renal = system: UO-31 renal
COLO 205 colon = system: COLO 205 colon
HOP-92 NSCLC = system: HOP-92 NSCLC
OVCAR-5 ovarian = system: OVCAR-5 ovarian
TK-10 renal = system: TK-10 renal

O=C(/C=C/c1ccc(Cl)cc1)c1ccc(Cl)c(Cl)c1
TGI (786-0 renal): > 100 µM | TGI (A498 renal): > 100 µM | TGI (A549 NSCLC): > 100 µM | TGI (ACHN renal): > 100 µM | TGI (CAKI-1 renal): 53.1 µM | TGI (CCRF-CEM leukemia): 50.5 µM | TGI (DLD-1 colon): > 100 µM | TGI (DMS 114 small cell lung): > 100 µM | TGI (DMS 273 small cell lung): > 100 µM | TGI (EKVX NSCLC): 87.2 µM | TGI (HCC-2998 colon): > 100 µM | TGI (HCT-116 colon): > 100 µM | TGI (HCT-15 colon): > 100 µM | GI50 (HL-60(TB) leukemia): 15.9 µM | TGI (HL-60(TB) leukemia): 45.8 µM | TGI (HOP-62 NSCLC): 53.9 µM | TGI (HT29 colon): > 100 µM | TGI (IGROV1 ovarian): 79.9 µM | TGI (K-562 leukemia): > 100 µM | GI50 (KM12 colon): 12.2 µM | TGI (KM12 colon): > 100 µM | TGI (KM20L2 colon): > 100 µM | TGI (LOX IMVI melanoma): > 100 µM | TGI (LXFL 529 NSCLC): 92.5 µM | TGI (M14 melanoma): > 100 µM | TGI (M19-MEL melanoma): > 100 µM | TGI (MALME-3M melanoma): 62.4 µM | TGI (MOLT-4 leukemia): 69.6 µM | TGI (NCI-H226 lung): 34.9 µM | TGI (NCI-H23 lung): 30.2 µM | TGI (NCI-H460 lung): > 100 µM | TGI (NCI-H522 lung): 42.9 µM | TGI (OVCAR-3 ovarian): 48.3 µM | TGI (OVCAR-4 ovarian): > 100 µM | TGI (OVCAR-8 ovarian): 47.9 µM | TGI (RPMI-8226 leukemia): 8.88 µM | TGI (RXF 393 renal): 72.2 µM | TGI (SF-268 CNS): > 100 µM | TGI (SF-295 CNS): > 100 µM | TGI (SF-539 CNS): 56.9 µM | TGI (SK-MEL-2 melanoma): 47.8 µM | TGI (SK-MEL-28 melanoma): 66.7 µM | TGI (SK-MEL-5 melanoma): 68.7 µM | TGI (SK-OV-3 ovarian): 85.9 µM | GI50 (SN12C renal): 48 µM | TGI (SN12C renal): > 100 µM | TGI (SNB-19 CNS): 75.5 µM | TGI (SNB-75 CNS): 61.5 µM | GI50 (SW-620 colon): 19.6 µM | TGI (SW-620 colon): > 100 µM | TGI (U251 CNS): 44.5 µM | TGI (UACC-257 melanoma): 98.8 µM | TGI (UACC-62 melanoma): 70 µM | TGI (UO-31 renal): 80.9 µM

Cc1cc2c(=O)cc(-c3cccs3)oc2c(C(=O)O)c1C
TGI (786-0 renal): > 100 µM | TGI (A498 renal): > 100 µM | TGI (A549 NSCLC): > 100 µM | TGI (ACHN renal): > 100 µM | TGI (CCRF-CEM leukemia): > 100 µM | TGI (COLO 205 colon): > 100 µM | TGI (DLD-1 colon): > 100 µM | TGI (DMS 273 small cell lung): > 100 µM | TGI (EKVX NSCLC): > 100 µM | TGI (HCC-2998 colon): > 100 µM | TGI (HCT-116 colon): > 100 µM | TGI (HCT-15 colon): > 100 µM | TGI (HOP-62 NSCLC): > 100 µM | TGI (HOP-92 NSCLC): > 100 µM | TGI (HT29 colon): > 100 µM | TGI (IGROV1 ovarian): > 100 µM | TGI (K-562 leukemia): > 100 µM | TGI (KM12 colon): > 100 µM | TGI (KM20L2 colon): > 100 µM | TGI (LOX IMVI melanoma): > 100 µM | TGI (LXFL 529 NSCLC): > 100 µM | TGI (M14 melanoma): > 100 µM | TGI (M19-MEL melanoma): > 100 µM | TGI (MALME-3M melanoma): > 100 µM | TGI (MOLT-4 leukemia): > 100 µM | TGI (NCI-H23 lung): > 100 µM | TGI (NCI-H460 lung): > 100 µM | TGI (NCI-H522 lung): 48.4 µM | TGI (OVCAR-3 ovarian): > 100 µM | TGI (OVCAR-4 ovarian): > 100 µM | TGI (OVCAR-5 ovarian): > 100 µM | TGI (OVCAR-8 ovarian): > 100 µM | TGI (RPMI-8226 leukemia): > 100 µM | TGI (SF-268 CNS): > 100 µM | TGI (SF-295 CNS): > 100 µM | TGI (SK-MEL-2 melanoma): > 100 µM | TGI (SK-MEL-28 melanoma): > 100 µM | TGI (SK-MEL-5 melanoma): > 100 µM | TGI (SK-OV-3 ovarian): > 100 µM | TGI (SN12C renal): > 100 µM | TGI (SNB-19 CNS): > 100 µM | TGI (SNB-75 CNS): 37.6 µM | TGI (SW-620 colon): > 100 µM | TGI (TK-10 renal): > 100 µM | TGI (U251 CNS): > 100 µM | TGI (UACC-257 melanoma): > 100 µM | TGI (UACC-62 melanoma): > 100 µM | TGI (UO-31 renal): > 100 µM
